# “And” between values parts separate entries of the source, which are not always exact repeats. Identical values can stand only once. Like-named read-outs stand apart in the source and are kept apart here.
# Tests used:
# [1] = Hepatocyte stability, human; assay type: in vitro ADME; details: cryopreserved hepatocytes
# Protocol: (§1) Tests were performed by WuXi AppTec, China. Following a viability check of cryopreserved hepatocytes from Sprague-Dawley rat, Beagle dog, or human, test compounds (at 1 μM) or positive controls 7-ethoxycoumarin and 7-hydroxycoumarin (at 3 μM) were incubated at 37 °C, 5% CO2 with hepatocytes in Williams’ Medium E. Following incubation of 15, 30, 60, 90, 120, 180, and 240 min, reactions were stopped by the addition of acetonitrile, the samples were centrifuged, and LC-MS/MS analysis was conducted using tolbutamide as an internal standard.
# Thermodynamic solubility = assay type: physicochemical
# Protocol: The thermodynamic solubility was measured by WuXi AppTec, China. Aliquots of the compound DMSO stock (10 mM) were transferred to fasted state simulated intestinal fluid (FaSSIF) buffer (pH 6.5) or fed state simulated intestinal fluid (FeSSIF) buffer (pH 5.0), and the mixtures were shaken for 24 h at room temperature. Following sampling by a Whatman filter device, the compound concentrations were determined by UV spectroscopy.
# [2] = Hepatocyte stability, dog; assay type: in vitro ADME; details: Beagle, cryopreserved dog hepatocytes
# Protocol: as §1
# [3] = Plasma-protein binding, dog; assay type: in vitro ADME; details: Beagle, pH 7.4
# Protocol: Tests were conducted by WuXi AppTec, Co., China, using the equilibrium dialysis method and a 96-well plate format. The test compound (at 2 μM, in triplicate) in solution in plasma (Balb/c mouse, golden (Syrian) hamster, Sprague-Dawley rat, Beagle dog or human) was dialyzed against 100 mM phosphate-buffered saline (pH 7.4) on a rotating plate incubated for 6 h at 37 °C. Following the precipitation of protein with acetonitrile or acetonitrile/methanol containing both 1% phosphoric acid, the amount of compound present in each compartment was quantified by LC-MS/MS.
# [4] = test system: CPSF3-overexpressing L. donovani promastigotes; assay: Drug sensitivity, CPSF3-overexpressing L. donovani promastigotes; assay type: cell-based; details: Leishmania donovani
# Protocol: (§2) The clonal L. donovani cell line LdBOB (derived from MHOM/SD/62/1S-CL2D) was grown as promastigotes at 28 °C, as described previously. Bloodstream form T. brucei MiTat 1.2 clone 221a and its derived subline, 2T1, were cultured at 37 °C in the presence of 5% CO2 in HMI9-T medium, as described previously. T. brucei cell lines overexpressing CPSF3 and overexpressing a mutated version of CPSF3 (Asn232His) were generated as part of a previous study and cultured as described.[19]
# L. donovaniCPSF3 gene (LdBPK_343210.1) was custom synthesized by GeneArt and ligated into the pIR1SAT vector via BglII restriction sites. Using the Q5 mutagenesis kit (NEB) and the pIR1SAT-LdCPSF3^WT construct as a template, mutations encoding A655C and Asn219His change to CPSF3^WT were introduced. Mutations were introduced using the specific primers 5′-GAGTACACGGCATCCGC-3′ and 5′-[…]-3′ and as per manufacturers’ instructions. Wild-type and mutated pIR1SAT constructs were digested with SwaI and transfected into L. donovani promastigotes, as previously described. Resistant clones were selected with nourseothricin (100 μg/mL), and two clones per transfection were selected for further study.
# (§3) Drug sensitivity assays with wild-type and transgenic T. brucei and L. donovani cell lines were carried out as previously described.[31],[32]
# MDR1 = assay: in vitro; assay type: in vitro ADME; details: dog
# Protocol: Bidirectional permeability tests with MDCK-MDR1 cells were performed by WuXi AppTec, Co., China. The test compound, at a concentration of 2 μM in 0.4% DMSO/HBSS buffer with 10 mM HEPES pH 7.4, was applied to the apical or basolateral side of the cell monolayer. Permeation of the compound from A to B direction or B to A direction was determined in triplicate over a 150 min incubation at 37 °C and 5% CO2 (95% humidity). Test and reference compounds were quantified by LC-MS/MS analysis based on the peak area ratio of analyte/internal standard.
# CYP1A2 = CYP1A2 (Homo sapiens, UniProt P05177); assay: CYP inhibition, CYP1A2; assay type: in vitro ADME; details: human liver microsomes
# Protocol: The study was conducted by WuXi AppTec, Co., China, using the time-dependent (TDI) method. […] Following incubation with substrates (phenacetin for 1A2, diclofenac for 2C9, S-(+) mephenytoin for 2C19, dextromethorphan for 2D6, and midazolam or testosterone for 3A4), reactions were stopped by adding ice-cold acetonitrile, the samples were analyzed for the formation of metabolites by LC-MS/MS, and the percentage of inhibition was determined.
# [5] = test system: wild-type L. donovani promastigotes; assay: Drug sensitivity, wild-type L. donovani promastigotes; assay type: cell-based; details: Leishmania donovani, Figure 2D
# Protocol: as §2, §3
# [6] = Hepatocyte stability, rat; assay type: in vitro ADME; details: Sprague-Dawley, cryopreserved rat hepatocytes
# Protocol: as §1
# [7] = test system: L. donovani clones, CPSF3 Asn219His; assay: Drug sensitivity, L. donovani CRISPR-Cas9 edited CPSF3 Asn219His; assay type: cell-based; details: listed as DNDI-6148
# Protocol: A cell line constitutively expressing Cas9 and T7 RNA polymerase was generated by transfecting 4 × 10^7 promastigotes with the pTB007 vector (10 μg), as previously described.[29] Expression of Cas9 in selected clones was confirmed by western blotting (Figure S1). In addition, the CRISPR-Cas9 system in these parasites was confirmed as functional following the successful tagging of the flagellar protein PF16 with mNeonGreen, as previously described.[29]
# To introduce specific mutations into CPSF3, 3 × 10^6 promastigotes expressing Cas9 and T7 RNA were resuspended in a 110 μL of Human T-Cell Nucleofector reagent and transfected with 18 μL of sgRNA and 4 μg of template using the Amaxa Nucleofector electroporator (program V-033). sgRNA was produced according to the previously established protocol from the Gluenz lab,[30] in which the scaffold primer G00 and a gene-specific forward primer (FwsgRNA) were used (Table S1). Twenty-four hours following transfection, DNDI-6148 was added to cultures at 6 μM. Drug-selected populations were cloned by limiting dilution, EC50s were determined, and genomic DNA was extracted. The CPSF3 gene from CRISPR-edited parasites was amplified by PCR, and the resulting products were sequenced.
# as §3
# [8] = test system: trypanosomes overexpressing the wild-type version of CPSF3; assay: Drug sensitivity, T. brucei overexpressing CPSF3; assay type: cell-based
# Protocol: as §2, §3
# in vivo = details: both, Sprague-Dawley, rat
# Sequence of CYP1A2 (P05177 whole entry): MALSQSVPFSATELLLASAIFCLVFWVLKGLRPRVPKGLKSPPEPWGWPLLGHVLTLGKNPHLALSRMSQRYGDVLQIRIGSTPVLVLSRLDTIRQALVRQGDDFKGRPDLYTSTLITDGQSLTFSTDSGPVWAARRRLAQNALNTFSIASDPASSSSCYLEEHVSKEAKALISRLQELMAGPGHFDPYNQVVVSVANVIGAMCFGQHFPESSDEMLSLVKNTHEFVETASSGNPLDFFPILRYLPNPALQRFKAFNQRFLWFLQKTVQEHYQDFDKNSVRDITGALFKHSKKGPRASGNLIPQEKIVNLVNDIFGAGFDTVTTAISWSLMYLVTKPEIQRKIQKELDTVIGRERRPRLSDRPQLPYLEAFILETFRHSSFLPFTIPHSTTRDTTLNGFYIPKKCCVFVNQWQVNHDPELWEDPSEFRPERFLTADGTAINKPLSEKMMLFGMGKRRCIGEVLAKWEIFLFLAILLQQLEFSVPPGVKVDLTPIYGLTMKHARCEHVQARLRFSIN
SMILES,hepatocyte CLint at 1 μM [1] [µL/min/1e6 cells],"solubility at 24 h (Thermodynamic solubility; FaSSIF buffer pH 6.5, read-out: FaSSIF solubility) [µg/mL]","solubility at 24 h (Thermodynamic solubility; FeSSIF buffer pH 5.0, read-out: FeSSIF solubility) [µg/mL]",hepatocyte CLint at 1 μM [2] [µL/min/1e6 cells],"fraction unbound at 6 h, 2 µM [3]",EC50 [4] [nM],"Papp A→B at 150 min, 2 μM (MDR1; MDCK-MDR1, pH 7.4) [×10⁻⁶ cm/s]","Papp B→A at 150 min, 2 μM (MDR1; MDCK-MDR1, pH 7.4) [×10⁻⁶ cm/s]","efflux ratio at 150 min, 2 μM (MDR1; MDCK-MDR1, pH 7.4)","efflux ratio at 2.5 h, 2 µM (MDR1; MDCK-MDR1, pH 7.4)","recovery at 150 min, 2 μM (MDR1; MDCK-MDR1, pH 7.4, Mean total recovery A to B) [%]","recovery at 150 min, 2 μM (MDR1; MDCK-MDR1, pH 7.4, Mean total recovery B to A) [%]",IC50 (CYP1A2) [nM],EC50 [5] [nM],hepatocyte CLint at 1 μM [6] [µL/min/1e6 cells],Fold change (relative to WT) [7],EC50 ([8]; Trypanosoma brucei) [nM],fold less sensitive compared to wild-type ([8]; trypanosomes overexpressing wild-type CPSF3) [fold],NOAEL at 14 days (in vivo) [mg/kg]
"Cc1c(C(=O)Nc2ccc3c(c2)B(O)OC3)nnn1-c1ccccn1 [Compound 23, N-(1-Hydroxy-1,3-dihydrobenzo[c][1,2]oxaborol-6-yl)-5-methyl-1-(pyridin-2-yl)-1H-1,2,3-triazole-4-carboxamide]",0.5,5.4,6.3,2.4,0.13,508 ± 13,17.1,11.6,0.68,0.7,71.1,87.8,> 50000,411 ± 12,0.7,3.0 fold and 3 fold,172 ± 3,2.9,–
"Cc1c(-c2ccccn2)coc1C(=O)Nc1ccc2c(c1)B(O)OC2 [Compound 28, N-(1-Hydroxy-1,3-dihydrobenzo[c][1,2]oxaborol-6-yl)-3-methyl-4-(pyridin-2-yl)furan-2-carboxamide]",–,–,–,–,–,–,–,–,–,–,–,–,–,–,–,–,–,–,< 12.5

# — paper PMC8591608, “DNDI-6148: A Novel Benzoxaborole Preclinical Candidate for the Treatment of Visceral Leishmaniasis” (Journal of Medicinal Chemistry, 2021)
